# Values of other authors in paper PMC7523345 (Investigational new drugs, 2018).
# Tests used:
# [1] = test system: TNBC cells with NOTCH1 re-arrangements; conditions: in vitro and in vivo; cited from earlier work
# [2] = test system: TNBC cells with NOTCH2 rearrangement; conditions: cited from earlier work
smiles,measurement,setting,value
O=S1(=O)N[C@@]2(CN1CC(F)(F)F)[C@@H]1CC[C@H]2Cc2ccc(/C=C/CN3CCC(C(F)(F)F)CC3)cc2C1 [MRK-003],Sensitivity of TNBC cells with NOTCH1 re-arrangements,[1],sensitive
same,Sensitivity of TNBC cells with NOTCH2 rearrangement,[2],resistant
